This is an account of results in patent US8822517B2, “Arylosulfonamides for the treatment of CNS diseases” (Adamed SP. Z O.O., priority 2010, dated 2014).

The target in data set [1] is serotoninergic 5-HT2A receptor (Homo sapiens, UniProt P28223). As to the kind of experiment: Binding assay 5-HT2A (h), [3H]ketanserin, HEK-293 cells. On the set-up: expressed in transfected cells; host or cells: HEK-293 cells. The note with it: read-out: 5-HT2A. The method, boiled down:
(§1)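 Specific ligand binding was taken as total minus non-specific binding, with the latter defined in the presence of surplus unlabelled ligand. Each compound was tested at a single 1×10^−6 M concentration.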

The target in data set [2] is T1, hERG potassium channels (Homo sapiens, UniProt Q12809). As to the kind of experiment: hERG potassium channel block, electrophysiology (IonWorks Quattro), CHO cells. To be noted: % block of hERG current, cloned hERG channels in CHO cells, IonWorks Quattro.
Description: (§4) Ability to block hERG potassium channels was determined using the electrophysiological method and cloned hERG potassium channels (KCNH2 gene, expressed in CHO cells) as biological material. The effects were evaluated using IonWorks™ Quattro system (MDS-AT).
(§5) hERG current was elicited using a pulse pattern with fixed amplitudes (conditioning prepulse: −80 mV for 25 ms; test pulse: +40 mV for 80 ms) from a holding potential of 0 mV. hERG current was measured as a difference between the peak current at 1 ms after the test step to +40 mV and the steady-state current at the end of the step to +40 mV.
(§6) Data acquisition and analyses was performed using the IonWorks Quattro™ system operation software (version 2.0.2; Molecular Devices Corporation, Union City, Calif.). Data were corrected for leak current.
Data set [3] has as its target T2, serotoninergic 5-HT7 receptor (Homo sapiens, UniProt P34969). The data set can be described thus: Cellular functional assay, serotoninergic 5-HT7 receptor (agonism/antagonism). The format is cell-based. To be noted: for activation at 1 µM: agonist effect, percent of control specific agonist response, compounds tested at 1×10^−6M, read-out: 5-HT7-ag [%]; for inhibition at 1 µM: read-out: 5-HT7-antag. [%]. As to the method:
(§2) The compounds were tested at the concentration of 1×10^−6M.
(§3) In the Tables ag refers to agonism, and antag to antagonism).

The target in data set [4] is T3, serotoninergic 5-HT6 receptor (Homo sapiens, UniProt P50406). The data set can be described thus: Cellular functional assay, serotoninergic 5-HT6 receptor (agonism/antagonism). It is filed as cell-based. The note with it: for inhibition at 1 µM: read-out: 5-HT6-antag. [%]. As to the method:
as §2, §3

In data set [5] the test system is sigma σ receptor. As to the kind of experiment: Binding assay σ (non-selective), [3H]DTG, rat cerebral cortex. The note with it: percent inhibition of control specific binding; compounds tested at 1×10^−6 M. Summed up:
as §1

Data set [6] addresses T4, serotoninergic receptor 5-HT2C (Homo sapiens, UniProt P28335).
T4 construct: expressed in transfected cells; host or cells: HEK-293 cells
T4 sequence (P28335 33-458): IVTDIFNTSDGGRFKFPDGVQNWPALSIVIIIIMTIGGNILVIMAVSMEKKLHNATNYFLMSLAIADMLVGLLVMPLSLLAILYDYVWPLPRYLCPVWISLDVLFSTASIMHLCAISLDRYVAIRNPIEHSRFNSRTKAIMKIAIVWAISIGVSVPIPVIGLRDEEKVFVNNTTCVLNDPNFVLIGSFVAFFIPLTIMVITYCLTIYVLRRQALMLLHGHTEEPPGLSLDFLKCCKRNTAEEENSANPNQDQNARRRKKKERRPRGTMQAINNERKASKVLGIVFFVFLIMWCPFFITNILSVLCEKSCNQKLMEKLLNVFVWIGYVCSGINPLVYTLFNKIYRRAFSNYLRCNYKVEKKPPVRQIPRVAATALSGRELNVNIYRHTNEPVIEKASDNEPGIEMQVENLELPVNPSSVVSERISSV
As to the kind of experiment: Binding assay 5-HT2C (h), [3H]mesulergine, HEK-293 cells. The note with it: read-out: 5-HT2C [%]. The method, boiled down: as §1

For data set [7], the target named is histaminergic H1 receptor (Homo sapiens, UniProt P35367). The data set can be described thus: Binding assay H1 (h), [3H]pyrilamine, HEK-293 cells. On the set-up: expressed in transfected cells; host or cells: HEK-293 cells. The note with it: read-out: H1 [%]. The method, boiled down:
as §1

For data set [8], the target named is dopaminergic D2 receptor (Homo sapiens, UniProt P14416). As to the kind of experiment: Binding assay D2S (h), [3H]methyl-spiperone, HEK-293 cells. Also on record: expressed in transfected cells; host or cells: HEK-293 cells. The note with it: read-out: D2 [%]. Summed up: as §1
In data set [9] the target is T2, serotoninergic 5-HT7 receptor. As to the kind of experiment: Binding assay 5-HT7 (h), [3H]LSD, CHO cells. Also on record: expressed in transfected cells; host or cells: CHO cells. To be noted: read-out: 5-HT7. The method, boiled down: as §1
The subject of data set [10] is adrenergic α1 receptor. The data set can be described thus: Binding assay α1 (non-selective), [3H]prazosin, rat cerebral cortex. To be noted: percent inhibition of control specific binding; compounds tested at 1×10^−6 M. Summed up: as §1
For data set [11], the target named is T5, adrenergic α2C receptor (Homo sapiens, UniProt P18825).
T5 sequence (P18825 1-462): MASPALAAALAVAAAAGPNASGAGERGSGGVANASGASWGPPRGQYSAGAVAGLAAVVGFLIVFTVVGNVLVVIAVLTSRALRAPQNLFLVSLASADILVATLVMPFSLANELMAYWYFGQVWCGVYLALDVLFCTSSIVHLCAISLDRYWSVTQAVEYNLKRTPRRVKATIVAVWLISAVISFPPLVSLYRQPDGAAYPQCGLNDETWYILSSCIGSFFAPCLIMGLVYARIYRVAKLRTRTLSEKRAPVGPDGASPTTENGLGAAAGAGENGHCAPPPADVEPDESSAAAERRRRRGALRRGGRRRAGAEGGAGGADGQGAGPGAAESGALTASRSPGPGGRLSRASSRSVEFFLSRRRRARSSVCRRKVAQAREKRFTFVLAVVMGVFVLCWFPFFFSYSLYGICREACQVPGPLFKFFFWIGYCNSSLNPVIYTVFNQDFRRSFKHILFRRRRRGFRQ
As to the kind of experiment: Binding assay α2C (h), [3H]RX 821002, CHO cells. On the set-up: expressed in transfected cells; host or cells: CHO cells. The note with it: read-out: α2C [%]. Summed up:
as §1

For data set [12], the target named is dopaminergic D3 receptor (Homo sapiens, UniProt P35462). The data set can be described thus: Binding assay D3 (h), [3H]methyl-spiperone, CHO cells. Also on record: expressed in transfected cells; host or cells: CHO cells. The note with it: read-out: D3 [%]. Summed up:
as §1

The target in data set [13] is T3, serotoninergic 5-HT6 receptor. The data set can be described thus: Binding assay 5-HT6 (h), [3H]LSD, CHO cells. The note with it: read-out: 5-HT6. On the set-up: expressed in transfected cells; host or cells: CHO cells. Summed up: as §1
Data set [14] addresses T6, muscarinic M3 receptor (Homo sapiens, UniProt P20309).
T6 construct: expressed in transfected cells; host or cells: CHO cells
The data set can be described thus: Binding assay M3 (h), [3H]4-DAMP, CHO cells. The note with it: read-out: M3 [%]. Summed up: as §1

Data set [15] deals with T7, serotoninergic 5-HT1A receptor (Homo sapiens, UniProt P08908).
T7 sequence (P08908 1-422): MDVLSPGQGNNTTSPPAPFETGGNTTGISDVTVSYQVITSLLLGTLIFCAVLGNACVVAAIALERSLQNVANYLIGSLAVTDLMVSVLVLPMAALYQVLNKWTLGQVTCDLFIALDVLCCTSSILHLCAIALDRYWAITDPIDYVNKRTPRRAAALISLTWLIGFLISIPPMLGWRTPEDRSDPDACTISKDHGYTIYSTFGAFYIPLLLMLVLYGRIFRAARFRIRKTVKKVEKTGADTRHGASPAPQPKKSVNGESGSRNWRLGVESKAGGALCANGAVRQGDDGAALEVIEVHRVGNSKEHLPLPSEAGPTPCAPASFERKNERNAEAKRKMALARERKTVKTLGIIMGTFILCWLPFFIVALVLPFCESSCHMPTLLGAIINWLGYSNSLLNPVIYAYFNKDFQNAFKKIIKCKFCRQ
As to the kind of experiment: Binding assay 5-HT1A (h), [3H]8-OH-DPAT, HEK-293 cells. On the set-up: expressed in transfected cells; host or cells: HEK-293 cells. To be noted: read-out: 5-HT1A. The method, boiled down: as §1

For data set [16], the target named is T8, serotonine transporter (SERT) receptor (Homo sapiens, UniProt P31645).
T8 construct: expressed in transfected cells; host or cells: CHO cells
As to the kind of experiment: Binding assay SERT (h), [3H]imipramine, CHO cells. The note with it: read-out: SERT [%]. The method, boiled down:
as §1

The target in data set [17] is T1, hERG potassium channels.
Description: as §4, §5, §6

Read-outs that look alike come from different tables or passages of the source.

T3 sequence (P50406 whole entry): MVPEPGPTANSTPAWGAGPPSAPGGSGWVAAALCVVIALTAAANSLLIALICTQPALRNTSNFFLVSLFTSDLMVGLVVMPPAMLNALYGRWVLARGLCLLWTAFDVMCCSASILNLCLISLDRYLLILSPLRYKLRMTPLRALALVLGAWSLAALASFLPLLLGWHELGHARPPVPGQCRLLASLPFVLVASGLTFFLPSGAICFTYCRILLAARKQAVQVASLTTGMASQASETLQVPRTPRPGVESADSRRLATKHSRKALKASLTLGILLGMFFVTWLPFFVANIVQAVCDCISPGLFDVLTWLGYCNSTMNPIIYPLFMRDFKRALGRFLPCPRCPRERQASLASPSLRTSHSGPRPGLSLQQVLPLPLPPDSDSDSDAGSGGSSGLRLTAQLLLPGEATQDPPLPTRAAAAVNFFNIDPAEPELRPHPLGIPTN
T1 sequence (Q12809 whole entry): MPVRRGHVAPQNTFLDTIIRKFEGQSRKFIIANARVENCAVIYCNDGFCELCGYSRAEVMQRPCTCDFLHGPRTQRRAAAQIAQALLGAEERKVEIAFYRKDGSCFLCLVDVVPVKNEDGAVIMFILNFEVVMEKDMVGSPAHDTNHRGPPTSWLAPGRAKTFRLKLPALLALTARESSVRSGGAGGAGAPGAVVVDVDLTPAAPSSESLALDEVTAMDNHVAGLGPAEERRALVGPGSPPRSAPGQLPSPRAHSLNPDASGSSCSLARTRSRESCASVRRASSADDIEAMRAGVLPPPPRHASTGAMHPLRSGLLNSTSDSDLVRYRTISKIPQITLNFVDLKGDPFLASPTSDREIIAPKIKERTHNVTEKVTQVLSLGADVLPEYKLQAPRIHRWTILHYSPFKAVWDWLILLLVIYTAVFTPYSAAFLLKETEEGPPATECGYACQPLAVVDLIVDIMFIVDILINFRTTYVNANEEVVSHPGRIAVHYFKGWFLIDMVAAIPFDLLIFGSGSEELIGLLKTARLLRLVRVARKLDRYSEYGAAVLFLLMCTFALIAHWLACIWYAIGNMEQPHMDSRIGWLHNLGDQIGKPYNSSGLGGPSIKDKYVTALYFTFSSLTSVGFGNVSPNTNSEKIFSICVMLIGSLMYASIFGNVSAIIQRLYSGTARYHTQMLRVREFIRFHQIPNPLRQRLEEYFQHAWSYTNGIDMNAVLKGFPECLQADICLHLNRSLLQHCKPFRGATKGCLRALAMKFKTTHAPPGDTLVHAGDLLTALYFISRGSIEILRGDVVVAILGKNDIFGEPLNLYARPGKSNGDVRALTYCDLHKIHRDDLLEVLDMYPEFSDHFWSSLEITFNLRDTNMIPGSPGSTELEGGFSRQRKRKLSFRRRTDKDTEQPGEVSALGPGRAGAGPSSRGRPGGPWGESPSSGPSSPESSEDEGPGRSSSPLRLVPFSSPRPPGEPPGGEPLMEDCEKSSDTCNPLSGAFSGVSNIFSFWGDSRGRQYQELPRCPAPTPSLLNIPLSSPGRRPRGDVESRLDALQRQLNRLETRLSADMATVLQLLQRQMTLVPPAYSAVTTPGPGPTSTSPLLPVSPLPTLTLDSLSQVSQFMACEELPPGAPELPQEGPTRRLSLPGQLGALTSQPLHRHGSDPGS
T6 sequence (P20309 whole entry): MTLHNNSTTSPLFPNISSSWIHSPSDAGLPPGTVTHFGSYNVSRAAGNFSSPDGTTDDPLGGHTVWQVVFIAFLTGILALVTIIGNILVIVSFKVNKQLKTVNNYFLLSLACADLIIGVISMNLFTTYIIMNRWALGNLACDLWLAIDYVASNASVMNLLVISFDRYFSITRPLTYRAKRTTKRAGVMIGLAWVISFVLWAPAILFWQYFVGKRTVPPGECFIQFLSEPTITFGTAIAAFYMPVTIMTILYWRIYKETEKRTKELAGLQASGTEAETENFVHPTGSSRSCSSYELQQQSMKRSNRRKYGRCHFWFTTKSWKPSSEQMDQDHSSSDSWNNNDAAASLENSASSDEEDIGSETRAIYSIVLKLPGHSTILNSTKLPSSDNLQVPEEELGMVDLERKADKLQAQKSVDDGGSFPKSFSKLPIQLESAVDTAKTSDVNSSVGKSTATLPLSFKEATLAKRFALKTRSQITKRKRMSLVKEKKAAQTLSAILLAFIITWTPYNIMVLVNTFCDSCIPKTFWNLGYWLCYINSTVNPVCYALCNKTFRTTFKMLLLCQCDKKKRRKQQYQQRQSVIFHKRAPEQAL
T8 sequence (P31645 whole entry): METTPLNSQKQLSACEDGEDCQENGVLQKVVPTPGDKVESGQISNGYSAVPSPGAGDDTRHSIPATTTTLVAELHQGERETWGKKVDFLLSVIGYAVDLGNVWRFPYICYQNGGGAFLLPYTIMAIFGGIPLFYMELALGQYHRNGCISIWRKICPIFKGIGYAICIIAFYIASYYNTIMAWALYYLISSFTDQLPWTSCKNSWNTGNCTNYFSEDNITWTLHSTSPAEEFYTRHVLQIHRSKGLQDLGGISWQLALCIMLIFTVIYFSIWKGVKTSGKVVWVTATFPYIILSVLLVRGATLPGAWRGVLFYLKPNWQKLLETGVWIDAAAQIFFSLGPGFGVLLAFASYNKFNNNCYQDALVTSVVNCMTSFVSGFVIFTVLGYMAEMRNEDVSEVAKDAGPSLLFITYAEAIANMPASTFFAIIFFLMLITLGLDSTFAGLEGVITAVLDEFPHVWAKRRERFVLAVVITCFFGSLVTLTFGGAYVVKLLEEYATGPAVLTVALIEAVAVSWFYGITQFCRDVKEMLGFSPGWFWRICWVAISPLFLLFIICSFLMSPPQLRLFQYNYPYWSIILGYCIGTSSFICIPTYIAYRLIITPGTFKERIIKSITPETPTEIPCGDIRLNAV
T2 sequence (P34969 whole entry): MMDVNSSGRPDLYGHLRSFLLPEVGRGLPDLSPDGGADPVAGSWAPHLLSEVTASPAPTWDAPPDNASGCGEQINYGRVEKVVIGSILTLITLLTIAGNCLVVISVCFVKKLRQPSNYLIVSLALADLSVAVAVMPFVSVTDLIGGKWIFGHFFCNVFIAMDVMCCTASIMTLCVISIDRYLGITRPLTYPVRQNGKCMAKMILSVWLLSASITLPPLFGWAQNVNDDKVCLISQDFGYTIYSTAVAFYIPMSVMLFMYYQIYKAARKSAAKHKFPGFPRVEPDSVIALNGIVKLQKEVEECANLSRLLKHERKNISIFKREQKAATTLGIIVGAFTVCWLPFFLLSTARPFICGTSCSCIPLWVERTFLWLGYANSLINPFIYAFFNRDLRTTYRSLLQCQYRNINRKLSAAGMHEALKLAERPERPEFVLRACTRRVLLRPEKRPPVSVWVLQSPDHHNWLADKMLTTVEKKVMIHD
Chain of serotoninergic 5-HT2A receptor (P28223 whole entry): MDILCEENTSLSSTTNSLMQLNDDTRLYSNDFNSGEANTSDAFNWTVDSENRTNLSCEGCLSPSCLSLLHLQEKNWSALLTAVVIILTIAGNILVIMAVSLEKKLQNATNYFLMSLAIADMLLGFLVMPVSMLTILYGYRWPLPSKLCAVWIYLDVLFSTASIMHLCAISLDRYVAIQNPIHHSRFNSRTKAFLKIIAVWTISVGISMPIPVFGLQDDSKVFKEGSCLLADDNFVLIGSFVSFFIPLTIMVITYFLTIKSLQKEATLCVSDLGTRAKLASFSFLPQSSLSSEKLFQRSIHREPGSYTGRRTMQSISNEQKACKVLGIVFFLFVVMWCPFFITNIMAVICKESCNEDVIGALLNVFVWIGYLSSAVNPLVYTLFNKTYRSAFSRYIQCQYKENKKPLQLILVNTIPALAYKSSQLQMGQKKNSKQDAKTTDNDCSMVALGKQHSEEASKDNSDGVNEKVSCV
Chain of histaminergic H1 receptor (P35367 whole entry): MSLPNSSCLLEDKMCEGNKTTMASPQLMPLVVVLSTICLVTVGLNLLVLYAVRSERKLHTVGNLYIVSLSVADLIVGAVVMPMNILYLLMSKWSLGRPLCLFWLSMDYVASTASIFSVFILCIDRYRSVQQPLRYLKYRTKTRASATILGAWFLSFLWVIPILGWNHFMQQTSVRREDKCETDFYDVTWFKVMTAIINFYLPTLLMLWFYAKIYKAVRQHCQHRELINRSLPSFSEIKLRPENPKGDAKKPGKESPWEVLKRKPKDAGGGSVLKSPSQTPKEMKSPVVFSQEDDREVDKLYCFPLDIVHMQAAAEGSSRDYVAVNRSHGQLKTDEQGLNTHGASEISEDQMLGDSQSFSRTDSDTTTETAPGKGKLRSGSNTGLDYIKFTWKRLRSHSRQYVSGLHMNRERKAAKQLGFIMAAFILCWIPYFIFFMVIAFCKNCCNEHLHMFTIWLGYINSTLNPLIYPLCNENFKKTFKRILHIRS
Chain of dopaminergic D2 receptor (P14416 1-414 isoform P14416-2): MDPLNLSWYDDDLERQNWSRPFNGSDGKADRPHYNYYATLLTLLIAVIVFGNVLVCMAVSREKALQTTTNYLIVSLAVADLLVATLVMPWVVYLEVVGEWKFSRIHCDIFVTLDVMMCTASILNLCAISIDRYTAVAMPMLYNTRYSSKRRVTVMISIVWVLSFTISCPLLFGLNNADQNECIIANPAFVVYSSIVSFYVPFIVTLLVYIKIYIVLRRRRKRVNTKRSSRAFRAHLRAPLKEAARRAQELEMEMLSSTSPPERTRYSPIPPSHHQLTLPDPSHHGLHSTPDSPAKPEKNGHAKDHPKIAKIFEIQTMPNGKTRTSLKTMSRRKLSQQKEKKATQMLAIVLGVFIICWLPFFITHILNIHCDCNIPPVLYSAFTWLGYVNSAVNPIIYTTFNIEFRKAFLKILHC

Consider `O=S(=O)(NCCCN1CCN(c2nsc3ccccc23)CC1)c1cccc2ccccc12` [Compound 5, N-(3-(4-(1,2-Benzothiazol-3-yl)piperazin-1-yl)propyl)naphthalene-1-sulphonamide], for which the inhibition at 1 µM in data set [1] amounted to 99%; in data set [3], 85%; in [4] it was 18%; in [6], 81%; in data set [7] it was 92%; in [8] it was 96%. For the same molecule, the inhibition at 1 µM in [9] was 98%; in [11] it was 99%; in data set [12] it was 98%; in [13], 84%; in data set [14] it was 7%; in data set [15], 99%. For the same molecule, the inhibition at 1 µM in data set [16] was 84%. The “hERG [%]” value in data set [2] was 17%. Further, in [3], the activation at 1 µM was -1%. The “σ [%]” value in data set [5] amounted to 72%. For the same molecule, in data set [10], the “α1 [%]” value turned out to be 98%.

As to `O=S(=O)(NCCCN1CCN(c2nsc3ccccc23)CC1)c1ccc2ccccc2c1` [Compound 6, N-(3-(4-(1,2-Benzothiazol-3-yl)piperazin-1-yl)propyl)naphthalene-2-sulphonamide], the inhibition at 1 µM in data set [1] stood at 100%; in data set [3], 66%; in data set [4], 26%; in data set [6] it was 88%; in data set [7], 93%; in data set [8], 96%. Further, the inhibition at 1 µM was 98% in data set [9]; 93% in data set [11]; 97% in [12]; 88% in [13]; -1% in data set [14]; 99% in data set [15]. Also, the inhibition at 1 µM in data set [16] worked out at 95%. For the same molecule, in data set [2], the “hERG [%]” value amounted to 13%. In data set [3], the activation at 1 µM was 0%. Further, the “σ [%]” value in [5] was found to be 59%. Moreover, the “α1 [%]” value in [10] is given as 95%.

Take `Cc1[nH]c2ccc(Cl)cc2c1C1=CCN(CCCNS(=O)(=O)c2cccc(O)c2)CC1` [Compound 445, N-[3-[4-(5-Chloro-2-methyl-1H-indol-3-yl)-3,6-dihydro-2H-pyridin-1-yl]propyl]-3-hydroxybenzenesulphonamide]: the inhibition at 1 µM stood at 78% in [1]; 67% in data set [6]; 60% in [7]; 98% in data set [8]; 98% in data set [9]; 69% in data set [11]. Moreover, the inhibition at 1 µM in data set [12] came to 97%; in [13], 84%; in [14], 27%; in data set [15], 93%; in data set [16], 68%. Also, the “σ [%]” value in [5] was determined as 67%. Also, in data set [17], the “hERG [%]” value is 2%. In data set [10], the “α1 [%]” value was 50%.

As for `O=S(=O)(NCCCCN1CCN(c2cccc3[nH]ccc23)CC1)c1ccc(C(F)(F)F)cc1` [Compound 360, N-[4-[4-(1H-Indol-4-yl)piperazin-1-yl]butyl]-4-(trifluoromethyl)benzenesulphonamide], the inhibition at 1 µM in data set [1] is 67%; in [8], 99%; in [9], 100%; in data set [12], 100%; in [13] it was 67%; in [15], 83%. The inhibition at 1 µM in data set [16] came out at 8%. In addition, the “hERG [%]” value in [2] worked out at 5%. For the same molecule, the “α1 [%]” value in data set [10] is reported as 93%.

Take `O=S(=O)(NCCCCN1CCC(c2noc3cc(F)ccc23)CC1)c1cccc2ccccc12` [Compound 17, N-[4-[4-(6-Fluoro-1,2-benzoxazol-3-yl)piperidin-1-yl]butyl]naphthalene-1-sulphonamide]: the inhibition at 1 µM in [1] was found to be 100%; in data set [3] it was 95%; in data set [4], 69%; in [6], 62%; in [7] it was 80%; in data set [8], 98%. In addition, the inhibition at 1 µM in data set [9] is 99%; in [11], 100%; in data set [12] it was 93%; in data set [13], 99%; in data set [14], 7%; in data set [15], 84%. For the same molecule, the inhibition at 1 µM in data set [16] came out at 44%. Besides, the “hERG [%]” value in data set [2] is reported as 24%. In [4] (agonist effect, percent of control specific agonist response, compounds tested at 1×10^−6M, read-out: 5-HT6-ag [%]), the activation at 1 µM worked out at 2%.

As to `O=S(=O)(NCCCCN1CCN(c2cccc3[nH]ccc23)CC1)c1c[nH]c2ncccc12` [Compound 31, N-{4-[4-(1H-Indol-4-yl)piperazin-1-yl]butyl}-1H-pyrrolo[2,3-b]pyridine-3-sulphonamide], the inhibition at 1 µM in data set [1] was found to be 36%; in data set [8], 38%; in data set [9] it was 87%; in data set [12] it was 96%; in data set [13], 18%; in data set [15] it was 82%. In addition, the inhibition at 1 µM in data set [16] was -2%. For the same molecule, in [2], the “hERG [%]” value is recorded as 2%. Besides, in data set [10], the “α1 [%]” value came out at 101%.
